The source of these data is patent US20120288531A1, “PHARMACEUTICAL COMPOSITIONS FOR DELIVERY OF FERRIC IRON COMPOUNDS, AND METHODS OF USE THEREOF” (priority 2011, published 2012).

For series [1], the system named is Blood hemoglobin. The experiment in a line: Repeated doses: effect on blood hemoglobin in normal SD rats. To be noted: ROA IJ (FAC) or PO (ferrous sulfate). Type of series: in vivo.
Protocol: Blood samples were collected pre-dosing (Day 1) and post-dosing (Day 22). Blood hemoglobin was evaluated using colorimetric assay.
Series [2] can be described thus: Stability of ferric acetyl-hydroxamate complex in pre-hydrophilic fraction. To be noted: pre-hydrophilic fraction of Table 1 (10% PVP-12 and 15% NaC8), 4 hours.
The conditions of series [3]: one month at 25° and 40° C.

Take ferrous sulfate: the “Hb at Day 22 (Mean ± SE)” value in series [1] (post-dosing, daily for 21 days (18 doses), 6.3 mg iron per dose) stood at 13.9 ± 0.2 g/dL. Moreover, in series [1] (pre-dosing, normal SD rats), the “Hb at Day 1 (Mean ± SE)” value is listed as 14.2 ± 0.2 g/dL.

Turning to `CC(=O)N[O-].CC(=O)N[O-].CC(=O)N[O-].[Fe+3]` [ferric acetyl-hydroxamate], in series [2], the “precipitation and Fe2+ formation” value is listed as “Neither precipitation nor Fe^2+ formation was observed”; the “stability in the pre-hydrophilic fraction” value is listed as “stable for 4 hours”.

For `O.O=C([O-])CN(CCN(CC(=O)[O-])CC(=O)[O-])CC(=O)[O-].[Fe+3].[Na+]` [ferric sodium EDTA, ethylenediaminetetraacetic acid iron(III) sodium salt hydrate], the “stability in the oily suspension” value in series [3] was “good stability”.
